The subject of series [1] is different types of blood cancer. The following applies: cited from earlier work.
The test system of series [2] is Colon 38 (C38, a C57BL/6J mouse colon adenocarcinoma cell line) tumor. The series is described as follows: C38 (Colon 38) subcutaneous tumor model, tumor volume. To be noted: female C57BL/6J mice, 20 per group; 4SC-202 20 mg/kg PO twice daily x24; antibodies 10 mg/kg IP (anti-PD1 TWx2, anti-LAG-3 Q3Dx4); data to day 27. The class given is in vivo. The method, then: • 4SC-202 (tosylate salt). • Anti-PD1 antibody (clone: RMP1-14, catalog: BE0146, isotype: Rat IgG2a, Bioxcell), • Anti-LAG-3 antibody (clone: C9B7W, catalog: BE0174, isotype: Rat lgG1, Bioxcell),
• 4SC-202 was suspended in 2% aqueous methocel solution at 2 mg/ml (active compound). • Anti-PD-1 and anti-LAG3 antibody was diluted with PBS in order to reach final concentration of 1 mg/ml.
• 4SC-202 was administered at 20 mg/kg twice daily, based on 4SC-202 free base. • The anti-PD-1 and anti-LAG3 antibody was injected at 10 mg/kg per injection,
• 4SC-202 was administered by oral gavage (per os, PO) via a gavage tube. • The antibodies were injected intraperitoneally into the peritoneal cavity of mice. • In all cases, the administration volume was 10 mUkg adjusted to the most recent individual body weight of mice.
Colon 38 (C38, a C57BL/6J mouse colon adenocarcinoma cell line) tumor fragments.
The C38 fragments are stored frozen in DMSO/SVF/RPMI 1640 medium (10/10/80) in liquid nitrogen until use. In the study part 1, C38 frozen fragments were thawed at 37° C. for 5 min, rinsed twice in RPMI 1640 medium before subcutaneous (SC) implantation in mice.
Thirty-five (35) female C57BL/6J mice were subcutaneously implanted into the right flank with C38 tumor fragments. […]

Setting [3] is: 24 heavily pre-treated patients with different types of blood cancer.

For the compound `Cn1cc(-c2ccc(S(=O)(=O)n3ccc(/C=C/C(=O)Nc4ccccc4N)c3)cc2)cn1` [Compound 4SC-202, (E)-N-(2-aminophenyl)-3-(1-((4-(1-methyl-1H-pyrazol-4-yl)phenyl)sulfonyl)-1H-pyrrol-3-yl)acrylamide], in series [1] (setting [3]), the disease control is listed as 83 % of the patients, the long-term stabilization was 50 % of patients and the tolerability entry was “well tolerated with few and/or manageable adverse events”. In series [1] (one complete remission among 24 heavily pre-treated patients), the “complete remission, duration” value is 28 months. Further, the “partial responder, duration” value in series [1] (one partial responder among 24 heavily pre-treated patients) is reported as 8 months. The “tumor growth reduction / anti-tumoral efficacy (in words)” value in series [2] is on record as “reduced tumor growth to a certain extent”.

(Values after patent publication US20230201161A1, “Combination comprising HDAC inhibitor, LAG-3 inhibitor and a PD-1 inhibitor or PD-L1 inhibitor for cancer treatment” (4SC AG, priority 2018, published 2023).)
